Our source for the Ratio values is ChEMBL document CHEMBL1127151, “Derivatives of cyclosporin at position 2 as probes for cyclophilin” (1993).

The nature of experiment [1]: In vitro binding affinity of compound was measured to Cyclophilin under competitive ELISA system, activity relative to compound 1. (In general: In an ELISA, binding on a coated surface is turned into a signal by an enzyme label.)
For a further experiment, the species on record is Mus musculus. Kind of experiment: The immunosuppressive activity of compound was measured with the help of a mixed lymphocyte reaction in mouse (MLR_M), activity relative to compound 1. The class given is functional.
In the next experiment the test system is T-cell. Kind of experiment: The immunosuppressive activity of compound was measured with the help of a reporter gene assay (IL2_RGA), activity relative to compound 1. The class given is functional, Homo sapiens. A general note: Reporter assays use an easily measured gene product as a stand-in for the process of interest.

Structures are written as SMILES.

Take `C/C=C/C[C@@H](C)[C@@H](O)[C@H]1C(=O)N[C@@H](CC(Cl)Cl)C(=O)N(C)CC(=O)N(C)[C@@H](CC(C)C)C(=O)N[C@@H](C(C)C)C(=O)N(C)[C@@H](CC(C)C)C(=O)N[C@@H](C)C(=O)N[C@H](C)C(=O)N(C)[C@@H](CC(C)C)C(=O)N(C)[C@@H](CC(C)C)C(=O)N(C)C(C(C)C)C(=O)N1C` (single isomer, unassigned): the Ratio worked out at 250 in experiment [1], 135 in the experiment listed under Mus musculus and 200 with T-cell.

For `C/C=C/C[C@@H](C)[C@@H](O)[C@H]1C(=O)N[C@@H](CC2CC2)C(=O)N(C)CC(=O)N(C)[C@@H](CC(C)C)C(=O)N[C@@H](C(C)C)C(=O)N(C)[C@@H](CC(C)C)C(=O)N[C@@H](C)C(=O)N[C@H](C)C(=O)N(C)[C@@H](CC(C)C)C(=O)N(C)[C@@H](CC(C)C)C(=O)N(C)C(C(C)C)C(=O)N1C` (single isomer, unassigned), the Ratio in experiment [1] is 250; in the experiment listed under Mus musculus, 120; in the experiment with T-cell, 225.

Turning to `C/C=C/C[C@@H](C)[C@@H](O)[C@H]1C(=O)N[C@@H]([C@@H](C)O)C(=O)N(C)CC(=O)N(C)[C@@H](CC(C)C)C(=O)N[C@@H](C(C)C)C(=O)N(C)[C@@H](CC(C)C)C(=O)N[C@@H](C)C(=O)N[C@H](C)C(=O)N(C)[C@@H](CC(C)C)C(=O)N(C)[C@@H](CC(C)C)C(=O)N(C)C(C(C)C)C(=O)N1C` (single isomer, unassigned), the results for the Ratio (in experiment [1]; in the experiment listed under Mus musculus; with T-cell) were 1.4, 1.7 and 1, respectively.

Turning to `C/C=C/C[C@@H](C)[C@@H](O)[C@H]1C(=O)N[C@@H](CCC)C(=O)N(C)CC(=O)N(C)[C@@H](CC(C)C)C(=O)N[C@@H](C(C)C)C(=O)N(C)[C@@H](CC(C)C)C(=O)N[C@@H](C)C(=O)N[C@H](C)C(=O)N(C)[C@@H](CC(C)C)C(=O)N(C)[C@@H](CC(C)C)C(=O)N(C)C(C(C)C)C(=O)N1C` (single isomer, unassigned) [GECLOSPORIN], the Ratio worked out at 4 in experiment [1], 1.6 in the experiment listed under Mus musculus and 2.6 in the experiment with T-cell.

Consider `C/C=C/C[C@@H](C)[C@@H](O)[C@H]1C(=O)N[C@@H](C[C@@H](C)O)C(=O)N(C)CC(=O)N(C)[C@@H](CC(C)C)C(=O)N[C@@H](C(C)C)C(=O)N(C)[C@@H](CC(C)C)C(=O)N[C@@H](C)C(=O)N[C@H](C)C(=O)N(C)[C@@H](CC(C)C)C(=O)N(C)[C@@H](CC(C)C)C(=O)N(C)C(C(C)C)C(=O)N1C` (single isomer, unassigned), for which the Ratio in experiment [1] worked out at 207.

`C/C=C/C[C@@H](C)[C@@H](O)[C@H]1C(=O)N[C@@H]([C@H](O)CC)C(=O)N(C)CC(=O)N(C)[C@@H](CC(C)C)C(=O)N[C@@H](C(C)C)C(=O)N(C)[C@@H](CC(C)C)C(=O)N[C@@H](C)C(=O)N[C@H](C)C(=O)N(C)[C@@H](CC(C)C)C(=O)N(C)[C@@H](CC(C)C)C(=O)N(C)C(C(C)C)C(=O)N1C` (single isomer, unassigned): the Ratio came to 5.2 in experiment [1], 2.3 in the experiment listed under Mus musculus and 3 in the experiment on T-cell.
